pIC50: −log10 of the molar value. Like-named read-outs stand apart in the source and are kept apart here.
How the values were obtained:
[1] = tested on: SOC (store operated calcium channel); experiment: Measurement of SOC IC50 (thapsigargin store depletion, calcium re-addition, CHO cells); assay type: cell-based; conditions: Cricetulus griseus, CHO, read-out: SOC IC50
Experimental: The SOC (store operated calcium channel)-suppressive action can be measured by the method described in the Example and using, for example, FDSS 3000.
CHO cell culture medium was replaced with a BSS solution which is an extracellular fluidfree of calcium, the compound of the present invention was added 1 min later, and 1 μM thapsigargin was allowed to act thereon 2 min later to deplete intracellular calcium store. […]

[2] = tested on: Truncated N-terminal huntington 150 Q-EGFP-Neuron 2a cells; experiment: Measurement of x-Fold (polyglutamine aggregation inhibitory activity); assay type: cell-based
Experimental: In the present invention, the polyglutamine aggregation inhibitory activity (x-Fold) can be measured, for example, by the method described in the Example.
The number of the aggregated cells, and the total number of cells were counted by Array Scan V T1 (manufactured by Cellomics, Pittuburg, USA), and the ratio of the aggregated cells to the total number of cells was determined (x-Fold). […]

[3] = tested on: transglutaminase (TGase); experiment: Measurement of TG (TGase inhibitory activity, monodansyl cadaverine / N,N-dimethylcasein fluorescence, FDSS 3000); assay type: biochemical
Summary of the method: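 Compound (1 μL of 10 mM stock) added to 0.1 mL reaction: 100 mM HEPES-NaOH pH 7.5, 1 mM CaCl2, 20 μM monodansyl cadaverine, 0.05 mg/mL N,N-dimethylcasein, 5 μg/mL TGase. Rate of fluorescence change at 340 nm measured; DMSO control set to 100; TG50 is the concentration halving activity.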

[4] = CHO cells, 1 μM thapsigargin, 2 mM calcium chloride
[5] = polyglutamine aggregation inhibitory activity, Table 1
[6] = ratio of aggregated cells to total number of cells, compound 20 μM, 20 hr, almost 1 without compound, smaller = stronger inhibition
[7] = CHO cells, thapsigargin store depletion
[8] = polyglutamine aggregation, Truncated N-terminal huntington 150 Q-EGFP-Neuron 2a cells
[9] = TGase activity with compound (10 mM, 1 μL in 0.1 ml enzyme reaction solution), DMSO control taken as 100
[10] = TGase inhibitory activity measurement, unit not given
[11] = TGase inhibitory activity value, Table 1

| Molecule | pIC50 [1, 4] | pIC50 ([1]; Table 1) | x-Fold [2, 5] | x-Fold [2, 6] | pIC50 [1, 7] | x-Fold ([2]; polyglutamine aggregation, Truncated N-terminal huntington 150 Q-EGFP-Neuron 2a cells, listed as 2022) | x-Fold [2, 8] | TGase activity remaining (% of DMSO control = 100) [3, 9] | TGase activity remaining (% of DMSO control = 100) [3, 10] | TGase activity remaining (% of DMSO control = 100) [3, 11] |
| --- | --- | --- | --- | --- | --- | --- | --- | --- | --- | --- |
| Cc1ccc(B(OCc2ccccn2)c2ccc(C)c(Cl)c2)cc1Cl [Example 215] | 5.70 | 5.70 | 1.03 | 1.03 |  |  |  |  |  |  |
| OB(c1ccccc1)c1ccc(COc2ccc(B(O)c3ccccc3)cc2)cc1 [Example 370, (4-phenylhydroxyborylphenyl)(4′-phenylhydroxyborylbenzyl)ether] | 5.70 | 5.70 | 0.76 | 0.76 |  |  |  |  |  |  |
| OB(c1ccc(COc2ccc(B(O)c3ccc(C(F)(F)F)cc3)cc2)cc1)c1ccc(C(F)(F)F)cc1 [Example 372, (4-trifluoromethylphenylhydroxyborylphenyl)(4′-trifluoromethylphenylhydroxyborylbenzyl)ether] | 6.00 | 6.00 | 0.86 | 0.86 |  |  |  |  |  |  |
| NCCOB(c1ccc(COc2ccc(B(OCCN)c3ccc(C(F)(F)F)cc3)cc2)cc1)c1ccc(C(F)(F)F)cc1 [Example 373, (4-trifluoromethylphenylaminoethoxyborylphenyl)(4′-trifluoromethylphenylaminoethoxyborylbenzyl)ether] | 5.70 | 5.70 | 0.84 | 0.84 |  |  |  |  |  |  |
| CN(C)CCOB(c1ccccc1)c1cccc(COCc2cccc(B(OCCN(C)C)c3ccccc3)c2)c1 [Example 403, bis(3,3′-(phenyl-N,N-dimethylaminoethoxyboryl)benzyl)ether] | 5.70 |  |  | 1.14 | 5.70 | 1.14 |  |  |  |  |
| NCCSB(c1ccccc1)c1cccc(COCc2cccc(B(SCCN)c3ccccc3)c2)c1 [Example 405, bis(3,3′-(phenyl-aminoethylthioboryl)benzyl)ether] | 6.30 |  |  | 0.86 | 6.30 |  | 0.86 |  |  |  |
| CN(C)CCOB(c1ccc(Oc2ccc(B(OCCN(C)C)c3cccc4ccccc34)cc2)cc1)c1cccc2ccccc12 [Example 442, bis(4,4′-(naphthyldimethylaminoethoxyboryl)phenyl)ether] |  |  | 0.92 | 0.58 |  |  | 0.58 | 102 | 102 |  |
| NCCC(N)C(=O)OB(c1ccc(Oc2ccc(B(OC(=O)C(N)CCN)c3cccc4ccccc34)cc2)cc1)c1cccc2ccccc12 (stereo not shown) [Example 445, bis(4,4′-(naphthyl 2,4-diaminopropionic acid boryl)phenyl)ether] |  |  |  | 0.49 |  |  | 0.49 | 108 | 108 |  |
| Cc1ccc(B(OCCN(C)C)c2ccc(Oc3ccc(B(OCCN(C)C)c4ccc(C)cc4)cc3)cc2)cc1 [Example 446, bis(4,4′-(tolyldimethylaminoethoxyboryl)phenyl)ether] |  |  |  | 0.85 |  |  | 0.85 | 73 | 73 |  |
| Cc1ccc(B(OCCN2CCCCC2)c2ccc(Oc3ccc(B(OCCN4CCCCC4)c4ccc(C)cc4)cc3)cc2)cc1 [Example 447, bis(4,4′-(tolylpiperadylethoxyboryl)phenyl)ether] |  |  |  | 0.49 |  |  | 0.49 | 97 | 97 |  |
| Cc1ccc(B(OC(=O)C(N)CC(N)=O)c2ccc(COCc3ccc(B(OC(=O)C(N)CC(N)=O)c4ccc(C)cc4)cc3)cc2)cc1 (stereo not shown) [Example 449, bis(4,4′-(tolylasparagineboryl)benzyl)ether] |  |  |  | 0.89 |  |  | 0.89 | 92 | 92 |  |
| Cc1ccc(B(OC(=O)C(N)CCCCN)c2ccc(Oc3ccc(B(OC(=O)C(N)CCCCN)c4ccc(C)cc4)cc3)cc2)cc1 (stereo not shown) [Example 450, bis(4,4′-(tolyllysineboryl)phenyl)ether] |  |  |  | 0.49 |  |  | 0.49 | 53 | 53 |  |
| NCCC(N)C(=O)OB(c1ccccc1)c1ccc(COCc2ccc(B(OC(=O)C(N)CCN)c3ccccc3)cc2)cc1 (stereo not shown) [Example 453, bis(4,4′-(phenyl-2,4-diaminobutyrateboryl)benzyl)ether] |  |  |  | 1.04 |  |  | 1.04 | 113 | 113 |  |
| c1ccc(B(OCCN2CCCCC2)c2ccc(COCc3ccc(B(OCCN4CCCCC4)c4ccccc4)cc3)cc2)cc1 [Example 459, bis(4,4′-(phenyl-1-piperidylethoxyboryl)benzyl)ether] |  |  |  | 1.03 |  |  | 1.03 | 80 | 80 |  |
| c1ccc(B(OCCN2CCCCC2)c2cccc(COCc3cccc(B(OCCN4CCCCC4)c4ccccc4)c3)c2)cc1 [Example 466, bis(3,3′-(phenyl-1-piperidylethoxyboryl)benzyl)ether] |  |  |  | 1.04 |  |  | 1.04 | 71 | 71 |  |
| Cc1ccc2cccc(OB(c3ccccc3)c3ccc(Oc4ccc(B(Oc5cccc6ccc(C)nc56)c5ccccc5)cc4)cc3)c2n1 [Example 477, bis(4,4′-(phenyl-2-methyl-8-quinolinooxyboryl)phenyl)ether] |  |  |  | 1.02 |  |  | 1.02 | 97 | 97 |  |
| c1ccc(B(OCC2CCCN2)c2ccc3sc4ccc(B(OCC5CCCN5)c5ccccc5)cc4c3c2)cc1 (stereo not shown) [Example 483, 2,8-di(phenyl 2-pyrrolidinomethoxyboryl)dibenzothiophene] |  |  |  | 0.73 |  |  | 0.73 | 107 | 107 |  |
| NCCOB(c1ccsc1)c1ccc2sc3ccc(B(OCCN)c4ccsc4)cc3c2c1 [Example 485, 2,8-di(3-thiophenylaminoethoxyboryl)dibenzothiophene] |  |  |  | 0.98 |  |  | 0.98 | 76 | 76 |  |
| CCCCB(CCCC)OC(=O)C(N)Cc1ccccc1 (stereo not shown) [Example 493, dibutyl(phenylalanine-O,N)borane] |  |  |  | 1.03 |  |  | 1.03 | 106 | 106 |  |
| OB(c1ccccc1)c1cccc(B(O)c2ccccc2)c1 [compound 554] |  | < 4.70 |  |  |  |  |  |  |  |  |
| NC(CCC(=O)O)C(=O)OB(c1ccccc1)c1ccc(Oc2ccc(B(OC(=O)C(N)CCC(=O)O)c3ccc(CO)cc3)cc2)cc1 (stereo not shown) [compound 1036] |  | 6.52 |  |  |  |  |  |  |  |  |
| Cc1ccc(B(OC(=O)C(N)CC(N)=O)c2ccc(C)c(Cl)c2)cc1Cl (stereo not shown) [compound 4103] |  | 6.52 |  |  |  |  |  |  |  |  |
| FITC aminoethylaminoethyl diphenylborinate [Example 161] |  |  | 0.99 | 0.99 |  |  |  | 6 |  | 6 |
| bis((4,4′-phenyl methylaminoethoxyboryl)benzyloxybenzyl)methylaminoethoxyborane [Example 190] |  |  | 1.05 | 1.05 |  |  |  | 99 |  | 99 |
| bis((4,4′-phenyldimethylaminoethoxyboryl)benzyloxybenzyl)dimethylamino-ethoxyborane [Example 191] |  |  | 1.04 | 1.04 |  |  |  | 85 |  | 85 |
| di(3-chloro-4-methylphenyl)(2,6-diaminopimelinate-O,N)borane [Example 286] |  |  | 0.93 | 0.93 |  |  |  | 104 |  | 104 |
| di(3-chloro-6-methyl-phenyl)(argininate-O,N)borane [Example 156] |  |  | 1.08 | 1.08 |  |  |  | 91 |  | 91 |
| diphenyl(FITC-2,6-diaminocapronate-O,N)borane [Example 177] |  |  | 1.00 | 1.00 |  |  |  | 28 |  | 28 |
| diphenyl(tryptophanate-O,N)borane [Example 260] |  |  | 0.89 | 0.89 |  |  |  | 106 |  | 106 |
| tetramethylrhodamine aminoethylaminoethyl diphenylborinate [Example 162] |  |  | 0.85 | 0.85 |  |  |  | −2 |  | −2 |

— patent publication US8853424B2 (Japan Science and Technology Agency, priority 2008, dated 2014)
